The subject of this test is TNF-α. As to the kind of experiment: LPS-induced TNF-α assay in human whole blood. Format: cell-based. The note with it: LPS 1 μg/mL, 24 hours at 37° C., TNF-α by ELISA in plasma. The method, then: Whole blood provides a protein and cell-rich milieu appropriate for the study of biochemical efficacy of anti-inflammatory compounds such as PDE4-selective inhibitors. […] Upon stimulation with LPS, activated monocytes express and secrete TNF-α up to 8 hours and plasma levels remain stable for 24 hours. Published studies have shown that inhibition of TNF-α by increasing intracellular cAMP via PDE4 inhibition and/or enhanced adenylyl cyclase activity Occurs at the transcriptional level. […] As there is little LTB4 produced during a 24 hour LPS stimulation of whole blood, an additional LPS stimulation followed by fMLP challenge of human whole blood is necessary for LTB4 synthesis by activated neutrophils. Thus, by using the same blood sample, it is possible to evaluate the potency of a compound on two surrogate markers of PDE4 activity in the whole blood by the following procedure.
Fresh blood was collected in heparinized tubes by venipuncture from healthy human volunteers (male and female). These subjects had no apparent inflammatory conditions and had not taken any NSAIDs for at least 4 days prior to blood collection. 500 μL aliquots of blood were pre-incubated with either 2 μL of vehicle (DMSO) or 2 μL of test compound at varying concentrations for 15 minutes at 37° C. This was followed by the addition of either 10 μL vehicle (PBS) as blanks or 10 μL LPS (1 μg/mL final concentration, #L-2630 (Sigma Chemical Co., St. Louis, Mo.) from E. coli, serotype 0111:B4; diluted in 0.1% w/v BSA (in PBS)). After 24 hours of incubation at 37° C., another 10 μL of PBS (blank) or 10 μL of LPS (1 μg/mL final concentration) was added to blood and incubated for 30 minutes at 37° C. The blood was then challenged with either 10 μL of PBS (blank) or 10 μL of fMLP (1 μM final concentration, #F-3506 (Sigma); diluted in 1% w/v BSA (in PBS)) for 15 minutes at 37° C. The blood samples were centrifuged at 1500×g for 10 minutes at 4° C. to obtain plasma. A 50 μL aliquot of plasma was mixed with 200 μL methanol for protein precipitation and centrifuged as above. The supernatant was assayed for LTB4 using an enzyme immunoassay kit (#520111 from Cayman Chemical Co., Ann Arbor, Mich.) according to the manufacturer's procedure. TNF-α was assayed in diluted plasma (in PBS) using an ELISA kit (Cistron Biotechnology, Pine Brook, N.J.) according to manufacturer's procedure.
On the technique in general: In an ELISA, binding on a coated surface is turned into a signal by an enzyme label.

The values below come from patent US7238706B2, “4-oxo-1-(3-substituted phenyl-1,4-dihydro-1,8-naphthyridine-3-carboxamide phosphodiesterase-4 inhibitors” (Merck Frosst Canada, Ltd., priority 2002, dated 2007).

With `O=C(NC1CC1)c1cn(-c2cccc(-c3ccc([C@@H]4C[C@H]4C(=O)O)cc3)c2)c2ncccc2c1=O` (relative stereo) [Example 1, 2-(trans)-{3′-[3-[(Cyclopropylamino)carbonyl]-4-oxo-1,8-naphthyridin-1(4H)-yl]-1,1′-biphenyl-4-yl}cyclopropanecarboxylic acid], the IC50 (in general, the point on the concentration scale where inhibition reaches its midpoint) worked out at 0.3 µM.

`O=C(NC1CC1)c1cn(-c2cccc(-c3ccc(C4CC4C(=O)O)c(F)c3)c2)c2ncccc2c1=O` (single isomer, unassigned; (-)) [12-(−)-isomer, (−)-(trans)-2-{3′-[3-[(cyclopropylamino)carbonyl]-4-oxo-1,8-naphthyridin-1(4H)-yl]-3-fluoro-1,1′-biphenyl-4-yl}cyclopropanecarboxylic acid] returned an IC50 of 0.5 µM.

`O=C(NCC1CC1)c1cn(-c2cccc(-c3ccc(C4CC4C(=O)O)cc3)c2)c2ncccc2c1=O` (stereo not shown) [Example 26, 2-{3′-[3-{[(Cyclopropylmethyl)amino]carbonyl}-4-oxo-1,8-naphthyridin-1(4H)-yl]-1,1′-biphenyl-4-yl}cyclopropanecarboxylic acid] registered an IC50 of 0.16 µM.

On to `O=C(NCC(F)(F)F)c1cn(-c2cccc(-c3ccc([C@@H]4C[C@H]4C(=O)O)cc3)c2)c2ncccc2c1=O` (single isomer, unassigned; (+)) [24-(+)-isomer, (+)-(trans)-2-{3′-[4-oxo-3-{[(2,2,2-trifluoroethyl)amino]carbonyl}-1,8-naphthyridin-1(4H)-yl]biphenyl-4-yl}cyclopropanecarboxylic acid], for which the IC50 was found to be 0.16 µM.

For the compound `O=C(NC1CC1)c1cn(-c2cccc(-c3ccc([C@H]4C[C@H]4C(=O)O)cc3)c2)c2ncccc2c1=O` (single isomer, unassigned; isomer 2) [8-(−)-isomer, 2-(cis)-{3′-[3-[(Cyclopropylamino)carbonyl]-4-oxo-1,8-naphthyridin-1(4H)-yl]-1,1′-biphenyl-4-yl}cyclopropanecarboxylic acid], the IC50 is 0.16 µM. This counts as sub-micromolar.

`O=C(NCC(F)(F)F)c1cn(-c2cccc(-c3ccc(C4CC4C(=O)O)c(F)c3)c2)c2ncccc2c1=O` (single isomer, unassigned; (+)) [Example 29, (+)-(trans)-2-{3-fluoro-3′-[4-oxo-3-{[(2,2,2-trifluoroethyl)amino]carbonyl}-1,8-naphthyridin-1(4H)-yl]biphenyl-4-yl}cyclopropanecarboxylic acid] had an IC50 of 0.1 µM.

As to `O=C(NC1CC1)c1cn(-c2cccc(-c3cccc(C4CC4C(=O)O)c3)c2)c2ncccc2c1=O` (stereo not shown) [Example 2, 2-{3′-[3-[(Cyclopropylamino)carbonyl]-4-oxo-1,8-naphthyridin-1(4H)-yl]-1,1′-biphenyl-3-yl}cyclopropanecarboxylic acid], the IC50 was determined as 0.1 µM. This counts as sub-micromolar.

`O=C(NC1CC1)c1cn(-c2cccc(-c3ccc(C4CC4C(=O)O)c(Cl)c3)c2)c2ncccc2c1=O` (stereo not shown) [Example 17, 2-{3-Chloro-3′-[3-[(cyclopropylamino)carbonyl]-4-oxo-1,8-naphthyridin-1(4H)-yl]1,1′-biphenyl-4-yl}cyclopropanecarboxylic acid] showed an IC50 of 0.09 µM.

`O=C(NC1CC1)c1cn(-c2cccc(-c3ccc(CC4(C(=O)O)CCC4)cc3)c2)c2ncccc2c1=O` [Example 30, 1-({3′-[3-[(cyclopropylamino)carbonyl]-4-oxo-1,8-naphthyridin-1(4H)-yl]biphenyl-4-yl}methyl)cyclobutanecarboxylic acid] came in with an IC50 of 1.8 µM.

Turning to `CC(C)(CC(=O)O)c1ccc(-c2cccc(-n3cc(C(=O)NC4CC4)c(=O)c4cccnc43)c2)cc1` [Example 5, 3-{3′-[3-[(Cyclopropylamino)carbonyl]-4-oxo-1,8-naphthyridin-1(4H)-yl]-1,1′-biphenyl-4-yl}-3-methylbutanoic acid], the IC50 is 0.075 µM.
